Measurements from PubChem BioAssay (NCI).
“And” between values parts separate entries of the source, which are not always exact repeats. Equal values may be shown once.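 Briefly, cells in 96-well plates were exposed to five compound concentrations for 48 h, and endpoints were estimated by linear interpolation. GI50 marks 50% less growth. TGI: concentration producing complete growth inhibition.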

Tests used:
Assay in all cases: NCI-60 cell line screen, 48 h
[1] = system: 786-0 renal
[2] = system: HCC-2998 colon
[3] = system: HOP-62 NSCLC
[4] = system: IGROV1 ovarian
[5] = system: LXFL 529 NSCLC
[6] = system: OVCAR-3 ovarian
[7] = system: SK-MEL-28 melanoma
[8] = system: SNB-19 CNS
[9] = system: T-47D breast
[10] = system: M19-MEL melanoma

SMILES	GI50 [1] [µM]	TGI [1] [µM]	GI50 [2] [µM]	TGI [2] [µM]	GI50 [3] [µM]	TGI [3] [µM]	GI50 [4]	TGI [4] [µM]	GI50 [5] [µM]	TGI [5] [µM]	GI50 [6] [µM]	TGI [6]	GI50 [7] [µM]	TGI [7] [µM]	GI50 [8]	TGI [8] [µM]	GI50 [9] [µM]	TGI [9] [µM]	TGI [10] [µM]
CCCCCCCC(=O)[O-].N.N.N.N.N.[Co+3].[O-][Cl+3]([O-])([O-])[O-]	> 100	> 100	> 100	> 100	> 100	> 100	> 100 µM	> 100	> 100	> 100	> 100	> 100 µM	> 100	> 100	> 100 µM	> 100	–	–	–
CS(=O)(=O)Nc1cc(-c2ccc3ncnc(Nc4ccc(OCc5ccccn5)c(Cl)c4)c3c2)cnc1Cl	0.804	> 100	1.13	3.31	0.646	> 100	0.0748 µM	0.409	–	–	0.217	1.41 µM	0.256	3.92	0.449 µM	> 100	0.0258	0.217	–
CC(C)Cc1cc(-c2cccn2C)c(C#N)c(=O)[nH]1	> 100	> 100	> 100	> 100	> 100	> 100	> 100 µM	> 100	–	–	> 100	> 100 µM	> 100	> 100	> 100 µM	> 100	> 100	> 100	–
OC(CBr)C(O)C(O)C(O)CBr (stereo not drawn)	–	> 67.9	–	> 100	–	> 100	49.4 µM and > 100 µM	> 100	–	–	–	97 µM and > 100 µM	–	> 100	36 µM and > 100 µM	> 100	–	> 100	> 100
C=C1CC2(CC(c3ccccc3C)OC(c3ccccc3C)C2)OC1=O (stereo not drawn)	–	4.74	–	5.82	–	26.8	–	3.25	–	–	–	3.58 µM	–	4.27	–	30.8	–	3.21	–
COc1cc2cc(C(=O)Nc3ccccc3)c(N)nc2cc1OC	31.7	> 100	94.4	> 100	62.6	> 100	56.3 µM	> 100	–	–	50.9	> 100 µM	75.4	> 100	> 100 µM	> 100	23.6	> 100	–
COc1ccc2c(c1)C(=O)CC(C(N)=O)C2 (stereo not drawn)	–	> 100	–	> 100	–	> 100	–	> 100	–	–	–	> 100 µM	–	> 100	–	> 100	–	> 100	–
Oc1ccccc1-c1cnnc(-c2ccccc2O)c1	–	36.6	–	–	–	–	–	–	–	58.2	–	44.6 µM	–	88.3	–	–	–	–	61.8
N/C(=N/O)NOCCC(N)C(=O)O (stereo not drawn)	> 100	> 100	> 100	> 100	> 100	> 100	> 100 µM	> 100	–	–	> 100	> 100 µM	> 100	> 100	> 100 µM	> 100	> 100	> 100	–
Cc1ccccc1N=C(c1ccccc1)C1C(=O)c2ccccc2C1=O	7.05	36	19.2	54.2	18.2	63.9	10.7 µM	39.4	–	–	1.32	5.63 µM	24.9	> 100	20.8 µM	> 100	4.12	36.5	–
C[C@H]1O[C@@H](O[C@H]2[C@@H](O)C[C@H](O[C@H]3[C@@H](O)C[C@H](O[C@H]4CC[C@]5(C)C6CC[C@]7(C)[C@@H](C8=CC(=O)OC8)CC[C@]7(O)C6CC[C@@H]5C4)O[C@@H]3C)O[C@@H]2C)C[C@H](O)[C@@H]1O (stereo partly drawn)	0.0172	0.0596	0.0361	0.174	0.0118	0.0295	0.0261 µM	2.22	–	–	–	0.043 µM	0.0313	0.101	0.03 µM	0.0948	0.0172	0.0608	–
Cc1cccc(Nc2ncc(-c3ccccc3)o2)c1	> 25	> 25	> 25	> 25	> 25	> 25	> 25 µM	> 25	–	–	> 25	> 25 µM	> 25	> 25	> 25 µM	> 25	> 25	> 25	–
Nc1nc(N)c2c(n1)NC(c1ccc(Cl)cc1)C1CCc3ccccc3C1=N2 (stereo not drawn)	11.8	24.1	12.2	24.7	11.5	23.7	6.16 µM	20.4	–	–	6.46	19 µM	13.9	27.4	16.8 µM	30.4	4.09	17.8	–
C=C1C(=O)O[C@H]2[C@H]1CC/C(COC(=O)NCCc1ccc(Br)cc1)=C\CC[C@@]1(C)O[C@@H]21	1.04	2.4	1.71	3.37	1.99	4.4	1.08 µM	2.59	–	–	0.984	2.27 µM	1.47	3.12	1.39 µM	2.97	1.38	3.72	–
Cc1c(-c2c(F)cc(C(N)=O)c3[nH]c4c(c23)CC[C@H](C(C)(C)O)C4)cccc1-n1c(=O)c2cccc(F)c2n(C)c1=O	3.54	> 100	2.81	51.5	3.39	> 100	3.19 µM	> 100	–	–	3.95	> 100 µM	4.59	> 100	7.22 µM	> 100	3.39	> 100	–
Cc1cc(C2CC(O)C(CO)O2)c(Br)cc1Br (stereo not drawn)	> 100	> 100	> 100	> 100	> 100	> 100	33.8 µM	> 100	–	–	> 100	> 100 µM	> 100	> 100	> 100 µM	> 100	> 100	> 100	–
